Reference: patent US4990531A, “Derivatives of 1-arylsulphonyl-2-pyrrolidinone and their use as medicaments” (Roussel Uclaf, priority 1988, dated 1991)

Assays:
dopamine receptor = assay: Affinity for other receptors: dopamine; type: binding; settings: negligible affinity
[1] = tested on: contractions induced by barium chloride, isolated ileum; assay: Antagonism of barium chloride-induced contractions, isolated guinea-pig ileum; settings: barium chloride 2×10^-4 M; contact time one minute; read-out: Antagonism with various agents (IC50): BaCL2
Experimental: (§1) The interaction of the compounds with various receptors was evaluated on the isolated ileum of a guinea-pig according to the following method.
(§2) Segments of the ileum of guinea-pigs of 2.5-3 cm were washed and immediately suspended in a bath containing 10 ml of Tyrode's solution at 37° C. and aerated with a mixture of oxygen (95%) and carbon dioxide (5%). After a stabilization period of at least 30 minutes contractions were recorded, while the preparation was maintained under constant tension of 1 g, by means of a detector connected to a polygraph. The agonistic action was evaluated by leaving the compound in contact with the isolated tissue for a period necessary to show the maximum […]; then it was washed with the Tyrode's solution. The following dose was added only after the preparation had returned to its base line. Arecoline was used as a reference product. The antagonist action was evaluated on the contractions induced by acetylcholine (1×10^-6 M), histamine (1×10^-5 M), serotonine (1×10^-6 M) and barium chloride (2×10^-4 M). […] The contact time before adding the agonist was one minute.
(§3) For each compound the does response curves are obtained with 4 to 6 different concentrations and 3 to 5 independent tests. The agonist activity is expressed by pD2 (negative logarithm of the dose which produces 50% of the maximum effect).

GABA receptor = assay: Affinity for other receptors: GABA; type: binding; settings: negligible affinity
isolated ileum = assay: Agonist action on isolated guinea-pig ileum; settings: negative logarithm of the dose producing 50% of maximum effect
Experimental: as §1, §2, §3

[2] = target: serotonine 5 HT2 receptor (Homo sapiens, UniProt P28223); assay: Affinity for other receptors: serotonine 5 HT2; type: binding; settings: negligible affinity
[3] = tested on: contractions induced by acetylcholine, isolated ileum; assay: Antagonism of acetylcholine-induced contractions, isolated guinea-pig ileum; settings: acetylcholine 1×10^-6 M; contact time one minute; read-out: Antagonism with various agents (IC50): Ach.
Experimental: as §1, §2, §3

Muscarine receptor 1 = target: T1, Muscarine receptor 1 (Rattus norvegicus, UniProt P08482); assay: Bonding with cerebral receptors: muscarine receptor 1 (3H pirenzepine, rat cortex); type: binding; settings: 0.25 nM 3H pirenzepine, 60 min, 25° C., pH 7.4; read-out: Affinity for muscarine receptor M1 (/3H/Pirenzepine), IC50
T1 construct: prepared from cortex removed from the brains of a male rat; from tissue; host or cells: rat cerebral cortex homogenate (male rat, Iffa Credo)
Experimental: This is prepared from cortex removed from the brains of a male rat weighing 150 to 200 g, (Iffa Credo) pulverized with Polytron in a buffer Na/K 10 mM pH 7.4. After incubation (aliquots of 0.5 ml of homogenate) for 60 minutes at 25° C. in the presence of 0.25 nM of ^3 H pirenzepine, either alone, or with the product under test, or with an excess of pirenzepine at 10^-5 M (in order to determine the non-specific radioactivity fixed), the incubates are cooled and filtered.
The filtration is carried out on Whatman GF/C filters prewashed in a solution of polyethylene-imine at 0.05%. The filters are rinsed with 3×5 ml of phosphate Na/K buffer 10 mM pH 7.4, then measurements are made by liquid scintillation.

[4] = tested on: contractions induced by serotonine, isolated ileum; assay: Antagonism of serotonine-induced contractions, isolated guinea-pig ileum; settings: serotonine 1×10^-6 M; contact time one minute; read-out: Antagonism with various agents (IC50): Seroton.
Experimental: as §1, §2, §3

benzodiazepine receptor = assay: Affinity for other receptors: benzodiazepines; type: binding; settings: negligible affinity
adrenoreceptor alpha 1 = assay: Affinity for other receptors: adrenoreceptor alpha 1; type: binding; settings: negligible affinity
[5] = target: T2, muscarine receptors, involved in the contractions of the colon (Rattus norvegicus, UniProt P08483); assay: Antagonist affinity and type of antagonism (Schild), isolated colon of rat; settings: for "Slope" of Schild plot, isolated colon of rat / Kb: cumulative acetylcholine, Schild's method, contact 5 min; for Kb: read-out: pA2, isolated colon of rat (converted); for displacement of the dose-response curve of acetylcholine: isolated colon of rat, in words
T2 construct: segments of the colon of rats of about 2.5 cm; from tissue; host or cells: isolated rat colon segments
Experimental: (§4) The following method was used: segments of the colon of rats of about 2.5 cm are washed and suspended in an insulated bath containing 10 ml of a solution of De Jalon having the following composition: (mM): NaCl 154; KCl 5.7; CaCl2 0.27; NaHCO3 5.9 and glucose 2.5. The temperature of the bath is maintained at 32° C. In these conditions, while maintaining the preparation under a tension of 1 g, the spontaneous activity of the colon is minimal. After a stabilization period of at least 30 minutes, the tension variations are recorded using an isometric transducer connected to a recorder. A series of tests was carried out to evaluate the antagonist activity in relation to the contractions induced by a maximum dose of acetylcholine. (3×10^-6 M).
For each compound the dose-response curves are obtained with 4 to 6 different concentrations and 3 to 5 independent tests.
In a second series of tests the acetylcholine is added to the bath in cumulative doses according to the van Rossum method (J. M. van Rossum, Arch, Int. Pharmacodyn. 143, 299, 1963). Having obtained two equal and consecutive dose-response curves with acetylcholine, a third dose-responsecurve is obtained in the presence of the compound (contact time of compound before acetylcholine=5 min.) Each compound was tested with 3-4 different concentrations
The antagonist affinity and the type of antagonism (competitive, non-competitive) for the muscarine receptors was calculated according to Schild's method (H. D. Schild, Brit. J. Pharmacol. 2, 189, 1947).

[6] = target: serotonine 5 HT1 receptor; assay: Affinity for other receptors: serotonine 5 HT1; type: binding; settings: negligible affinity
[7] = tested on: contractions induced by acetylcholine, isolated colon; assay: Antagonism of acetylcholine-induced contractions, isolated colon of rat; settings: acetylcholine 3×10^-6 M; contact 3 minutes
Experimental: The remarkable antagonist action of the compounds of the invention was confirmed on the isolated colon of rats. In this test it was established whether the antagonist activity was of competitive or non-competitive type.
as §4
The compounds are left in contact with the preparation for 3 minutes before adding acetylcholine.
Atropine was used as a reference product. For each compound the dose-response curves are obtained with 4 to 6 different concentrations and 3 to 5 independent tests.

adrenoreceptor beta 1 = adrenoreceptor beta 1 (Homo sapiens, UniProt P08588); assay: Affinity for other receptors: adrenoreceptor beta 1; type: binding; settings: negligible affinity
opiated receptor kappa = opiated receptor kappa (Homo sapiens, UniProt P41145); assay: Affinity for other receptors: opiated receptor kappa; type: binding; settings: negligible affinity
adrenoreceptor beta 2 = adrenoreceptor beta 2 (Homo sapiens, UniProt P07550); assay: Affinity for other receptors: adrenoreceptor beta 2; type: binding; settings: negligible affinity
Chain of adrenoreceptor beta 2 (P07550 whole entry): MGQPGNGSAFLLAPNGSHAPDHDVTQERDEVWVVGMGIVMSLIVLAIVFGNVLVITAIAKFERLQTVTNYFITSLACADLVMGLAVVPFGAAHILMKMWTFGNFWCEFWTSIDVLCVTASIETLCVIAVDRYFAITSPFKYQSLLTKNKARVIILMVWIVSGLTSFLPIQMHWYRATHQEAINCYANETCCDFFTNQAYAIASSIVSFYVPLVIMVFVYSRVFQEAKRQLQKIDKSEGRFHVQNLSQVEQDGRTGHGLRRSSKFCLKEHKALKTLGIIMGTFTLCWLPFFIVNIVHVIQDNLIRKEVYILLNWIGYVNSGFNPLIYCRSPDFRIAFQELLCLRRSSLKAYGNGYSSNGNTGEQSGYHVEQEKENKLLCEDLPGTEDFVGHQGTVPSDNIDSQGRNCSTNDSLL

T2 sequence (P08483 whole entry): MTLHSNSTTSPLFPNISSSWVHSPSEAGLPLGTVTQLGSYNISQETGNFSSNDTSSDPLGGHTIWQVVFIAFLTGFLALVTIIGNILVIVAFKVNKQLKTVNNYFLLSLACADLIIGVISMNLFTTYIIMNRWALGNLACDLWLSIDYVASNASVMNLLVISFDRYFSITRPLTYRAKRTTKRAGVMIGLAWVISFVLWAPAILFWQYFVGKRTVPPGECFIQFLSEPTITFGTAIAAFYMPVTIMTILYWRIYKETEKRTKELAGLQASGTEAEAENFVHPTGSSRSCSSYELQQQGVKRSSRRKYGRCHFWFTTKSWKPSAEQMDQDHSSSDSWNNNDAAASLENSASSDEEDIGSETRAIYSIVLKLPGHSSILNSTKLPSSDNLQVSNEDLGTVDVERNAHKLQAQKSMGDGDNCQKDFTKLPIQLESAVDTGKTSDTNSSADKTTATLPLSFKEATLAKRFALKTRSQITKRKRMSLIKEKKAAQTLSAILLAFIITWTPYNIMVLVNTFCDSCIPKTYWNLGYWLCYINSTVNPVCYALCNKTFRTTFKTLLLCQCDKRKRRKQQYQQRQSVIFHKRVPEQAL
Chain of opiated receptor kappa (P41145 whole entry): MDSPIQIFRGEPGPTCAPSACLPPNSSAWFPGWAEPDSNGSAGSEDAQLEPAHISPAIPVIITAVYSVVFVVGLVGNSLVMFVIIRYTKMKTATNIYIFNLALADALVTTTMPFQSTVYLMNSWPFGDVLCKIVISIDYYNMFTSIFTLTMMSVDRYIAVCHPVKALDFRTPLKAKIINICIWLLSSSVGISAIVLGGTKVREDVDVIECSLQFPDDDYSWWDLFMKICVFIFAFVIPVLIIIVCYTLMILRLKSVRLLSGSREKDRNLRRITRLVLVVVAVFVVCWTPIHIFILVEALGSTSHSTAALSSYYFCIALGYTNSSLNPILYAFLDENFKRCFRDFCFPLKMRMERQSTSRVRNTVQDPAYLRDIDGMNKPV
Chain of serotonine 5 HT2 receptor (P28223 whole entry): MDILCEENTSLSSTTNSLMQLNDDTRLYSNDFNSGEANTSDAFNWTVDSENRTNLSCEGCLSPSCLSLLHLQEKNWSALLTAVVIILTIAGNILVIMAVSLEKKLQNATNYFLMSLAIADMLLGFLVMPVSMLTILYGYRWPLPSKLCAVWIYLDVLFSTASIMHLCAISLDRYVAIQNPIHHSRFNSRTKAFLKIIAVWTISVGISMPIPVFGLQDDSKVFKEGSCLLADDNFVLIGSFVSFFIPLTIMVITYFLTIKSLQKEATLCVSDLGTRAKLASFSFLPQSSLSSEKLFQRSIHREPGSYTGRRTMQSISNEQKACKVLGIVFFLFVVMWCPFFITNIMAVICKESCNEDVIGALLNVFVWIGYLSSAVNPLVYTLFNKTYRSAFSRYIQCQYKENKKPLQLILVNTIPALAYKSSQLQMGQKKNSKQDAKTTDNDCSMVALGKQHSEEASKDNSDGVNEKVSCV
T1 sequence (P08482 whole entry): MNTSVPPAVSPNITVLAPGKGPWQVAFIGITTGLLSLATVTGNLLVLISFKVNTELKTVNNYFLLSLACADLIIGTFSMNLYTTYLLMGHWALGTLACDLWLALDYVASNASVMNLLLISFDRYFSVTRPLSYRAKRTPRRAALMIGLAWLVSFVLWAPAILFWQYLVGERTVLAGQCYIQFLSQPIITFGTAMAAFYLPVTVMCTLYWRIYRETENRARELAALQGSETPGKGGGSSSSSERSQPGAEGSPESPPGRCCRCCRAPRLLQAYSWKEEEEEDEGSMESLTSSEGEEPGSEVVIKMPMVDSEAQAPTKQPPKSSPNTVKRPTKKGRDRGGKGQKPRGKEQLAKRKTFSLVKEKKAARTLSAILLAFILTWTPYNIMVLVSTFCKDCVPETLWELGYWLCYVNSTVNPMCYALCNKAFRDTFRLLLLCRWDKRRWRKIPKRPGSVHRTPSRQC
Chain of adrenoreceptor beta 1 (P08588 whole entry): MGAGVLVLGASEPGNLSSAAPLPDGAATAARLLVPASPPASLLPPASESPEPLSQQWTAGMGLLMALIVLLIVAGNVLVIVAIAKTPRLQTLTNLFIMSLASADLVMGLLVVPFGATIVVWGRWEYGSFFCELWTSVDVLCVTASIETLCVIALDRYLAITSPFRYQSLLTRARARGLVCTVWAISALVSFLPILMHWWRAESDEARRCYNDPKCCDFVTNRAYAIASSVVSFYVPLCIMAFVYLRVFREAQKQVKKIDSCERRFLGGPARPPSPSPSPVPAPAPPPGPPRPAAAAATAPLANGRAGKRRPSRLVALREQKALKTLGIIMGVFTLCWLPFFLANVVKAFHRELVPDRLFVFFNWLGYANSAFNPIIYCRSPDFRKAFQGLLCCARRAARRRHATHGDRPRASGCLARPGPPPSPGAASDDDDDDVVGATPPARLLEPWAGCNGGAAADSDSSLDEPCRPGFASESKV

CCN(CC)c1ccc(S(=O)(=O)N2CCCC2=O)cc1 [Example 2, 1-[4-(diethylamino)benzenesulphonyl]-2-pyrrolidinone] showed an IC50 (dopamine receptor) of 5 to 10 µM, an IC50 [1] of 6 µM and an IC50 (GABA receptor) of 5 to 10 µM. For the same molecule, the “Agonist Action (pD2)” value (isolated ileum) was less than 4, the IC50 [2] was 5 to 10 µM and the IC50 [3] was 0.062 µM. It also gave an IC50 (Muscarine receptor 1) of 0.098 µM, an IC50 [4] greater than 100 µM and an IC50 (benzodiazepine receptor) of 5 to 10 µM. For the same molecule, the IC50 (adrenoreceptor alpha 1) was 5 to 10 µM, the “"Slope" of Schild plot, isolated colon of rat” value [5] was 1.08 and the Kb [5] was 0.0447 µM. The “displacement of the dose-response curve of acetylcholine” value [5] was “parallel displacement towards the right of the dose-response curve of acetyl-choline without reducing the maximum contraction”, the IC50 [6] was 5 to 10 µM and the IC50 [7] was 0.16 µM. For the same molecule, the IC50 (adrenoreceptor beta 1) was 5 to 10 µM, the IC50 (opiated receptor kappa) was 5 to 10 µM and the IC50 (adrenoreceptor beta 2) was 5 to 10 µM.

For CC(C)(C)c1ccc(S(=O)(=O)N2CCCC2=O)cc1 [Example 1, 1-(4-tert-butylbenzenesulphonyl)-2-pyrrolidinone], the IC50 (dopamine receptor) was 5 to 10 µM, the IC50 [1] was 16 µM and the IC50 (GABA receptor) was 5 to 10 µM. For the same molecule, the “Agonist Action (pD2)” value (isolated ileum) was less than 4, the IC50 [2] was 5 to 10 µM and the IC50 [3] was 0.064 µM. It also gave an IC50 (Muscarine receptor 1) of 0.13 µM, an IC50 [4] greater than 100 µM and an IC50 (benzodiazepine receptor) of 5 to 10 µM. For the same molecule, the IC50 (adrenoreceptor alpha 1) was 5 to 10 µM, the “"Slope" of Schild plot, isolated colon of rat” value [5] was 0.89 and the Kb [5] was 0.017 µM. The “displacement of the dose-response curve of acetylcholine” value [5] was “parallel displacement towards the right of the dose-response curve of acetyl-choline without reducing the maximum contraction”, the IC50 [6] was 5 to 10 µM and the IC50 [7] was 0.28 µM. It also gave an IC50 (adrenoreceptor beta 1) of 5 to 10 µM, an IC50 (opiated receptor kappa) of 5 to 10 µM and an IC50 (adrenoreceptor beta 2) of 5 to 10 µM.
